Data published in patent US20210045385A1, “PYRIDAZINONE-SUBSTITUTED KETOXIMES AS HERBICIDES” (FMC Corporation, priority 2018, published 2021).

Assays:
Assay type in all cases: in vivo
[1] = test system: galium (catchweed bedstraw, Galium aparine); experiment: Test A postemergence, visual plant response rating; conditions: for Galium plant response rating (0 to 100 scale): 500 g ai/ha, postemergence, 0 is no effect, 100 is complete control; for Galium plant response rating: Postemergence, 125 g ai/ha, 0 to 100 scale (0 no effect, 100 complete control)
In short: (§1)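 Greenhouse evaluation, approx. 10 days post-spray. Soil: loam + sand. Postemergence stage: 1–2 leaves, height 2–10 cm. Vehicle: non-phytotoxic solvent blend with surfactant. Score: visual injury on a 0 (no effect) to 100 (complete control) scale.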

kochia (Kochia scoparia) [2] = experiment: Test A postemergence, visual plant response rating; conditions: for Kochia plant response rating (0 to 100 scale): 500 g ai/ha, postemergence, 0 is no effect, 100 is complete control; for Kochia plant response rating: Postemergence, 125 g ai/ha, 0 to 100 scale (0 no effect, 100 complete control)
In short: as §1

[3] = test system: wheat (Triticum aestivum); experiment: Test A postemergence, visual plant response rating; conditions: for Wheat plant response rating (0 to 100 scale): 500 g ai/ha, postemergence, 0 is no effect, 100 is complete control; for Wheat plant response rating: Postemergence, 125 g ai/ha, 0 to 100 scale (0 no effect, 100 complete control)
In short: as §1

[4] = test system: barnyardgrass (Echinochloa crus-galli); experiment: Test A postemergence, visual plant response rating; conditions: for Barnyardgrass plant response rating (0 to 100 scale): 500 g ai/ha, postemergence, 0 is no effect, 100 is complete control; for Barnyardgrass plant response rating: Postemergence, 125 g ai/ha, 0 to 100 scale (0 no effect, 100 complete control)
In short: as §1

[5] = test system: pigweed (Amaranthus retroflexus); experiment: Test A postemergence, visual plant response rating; conditions: for Pigweed plant response rating (0 to 100 scale): 500 g ai/ha, postemergence, 0 is no effect, 100 is complete control; for Pigweed plant response rating: Postemergence, 125 g ai/ha, 0 to 100 scale (0 no effect, 100 complete control)
In short: as §1

[6] = test system: blackgrass (Alopecurus myosuroides); experiment: Test A postemergence, visual plant response rating; conditions: for Blackgrass plant response rating (0 to 100 scale): 500 g ai/ha, postemergence, 0 is no effect, 100 is complete control; for Blackgrass plant response rating: Postemergence, 125 g ai/ha, 0 to 100 scale (0 no effect, 100 complete control)
In short: as §1

[7] = test system: ragweed (common ragweed, Ambrosia elatior); experiment: Test A postemergence, visual plant response rating; conditions: for Ragweed plant response rating (0 to 100 scale): 500 g ai/ha, postemergence, 0 is no effect, 100 is complete control; for Ragweed plant response rating: Postemergence, 125 g ai/ha, 0 to 100 scale (0 no effect, 100 complete control)
In short: as §1

[8] = test system: foxtail, green (green foxtail, Setaria viridis); experiment: Test A postemergence, visual plant response rating; conditions: for Foxtail, Green plant response rating (0 to 100 scale): 500 g ai/ha, postemergence, 0 is no effect, 100 is complete control; for Foxtail, Green plant response rating: Postemergence, 125 g ai/ha, 0 to 100 scale (0 no effect, 100 complete control)
In short: as §1

[9] = test system: Italian ryegrass (Lolium multiflorum); experiment: Test A postemergence, visual plant response rating; conditions: for Ryegrass, Italian plant response rating (0 to 100 scale): 500 g ai/ha, postemergence, 0 is no effect, 100 is complete control; for Ryegrass, Italian plant response rating: Postemergence, 125 g ai/ha, 0 to 100 scale (0 no effect, 100 complete control)
In short: as §1

corn (Zea mays) = experiment: Test A postemergence, visual plant response rating; conditions: for Corn plant response rating (0 to 100 scale): 500 g ai/ha, postemergence, 0 is no effect, 100 is complete control; for Corn plant response rating: Postemergence, 125 g ai/ha, 0 to 100 scale (0 no effect, 100 complete control)
In short: as §1

kochia (Kochia scoparia) [10] = experiment: Test A preemergence, visual plant response rating; conditions: approx. 10 days
In short: as §1

[11] = test system: barnyardgrass (Echinochloa crus-galli); experiment: Test A preemergence, visual plant response rating; conditions: approx. 10 days
In short: as §1

[12] = test system: pigweed (Amaranthus retroflexus); experiment: Test A preemergence, visual plant response rating; conditions: approx. 10 days
In short: as §1

[13] = test system: ragweed (common ragweed, Ambrosia elatior); experiment: Test A preemergence, visual plant response rating; conditions: approx. 10 days
In short: as §1

[14] = test system: foxtail, green (green foxtail, Setaria viridis); experiment: Test A preemergence, visual plant response rating; conditions: approx. 10 days
In short: as §1

[15] = test system: Italian ryegrass (Lolium multiflorum); experiment: Test A preemergence, visual plant response rating; conditions: approx. 10 days
In short: as §1

[16] = test system: ducksalad (Heteranhera limosa); experiment: Test B flooded paddy test, visual plant response rating; conditions: 250 g ai/ha, Flood, applied to paddy water, 2-leaf stage, evaluated after 13 to 15 days
In short: (§2)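 Rice, umbrella sedge, ducksalad and barnyardgrass grown to 2-leaf stage; pots flooded 3 cm above soil and compound applied directly to paddy water, depth maintained.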

[17] = test system: barnyardgrass (Echinochloa crus-galli); experiment: as above; conditions: 250 g ai/ha, Flood, applied to paddy water, 2-leaf stage, evaluated after 13 to 15 days
In short: as §2

[18] = test system: sedge, umbrella (small-flower umbrella sedge, Cyperus difformis); experiment: as above; conditions: 250 g ai/ha, Flood, applied to paddy water, 2-leaf stage, evaluated after 13 to 15 days
In short: as §2

rice (Oryza sativa) = experiment: as above; conditions: 250 g ai/ha, Flood, applied to paddy water, 2-leaf stage, evaluated after 13 to 15 days
In short: as §2

Row | Compound | Galium plant response rating (0 to 100 scale) [1] | Galium plant response rating [1] | Kochia plant response rating (0 to 100 scale) (kochia (Kochia scoparia) [2]) | Kochia plant response rating (kochia (Kochia scoparia) [2]) | Wheat plant response rating (0 to 100 scale) [3] | Wheat plant response rating [3] | Barnyardgrass plant response rating (0 to 100 scale) [4] | Barnyardgrass plant response rating [4] | Pigweed plant response rating (0 to 100 scale) [5] | Pigweed plant response rating [5] | Blackgrass plant response rating (0 to 100 scale) [6] | Blackgrass plant response rating [6] | Ragweed plant response rating (0 to 100 scale) [7] | Ragweed plant response rating [7] | Foxtail, Green plant response rating (0 to 100 scale) [8] | Foxtail, Green plant response rating [8] | Ryegrass, Italian plant response rating (0 to 100 scale) [9] | Ryegrass, Italian plant response rating [9] | Corn plant response rating (0 to 100 scale) (corn (Zea mays)) | Corn plant response rating (corn (Zea mays)) | also measured
1 | CCO/N=C(\c1cccc(Cl)c1)c1c(O)c(C)nn(C)c1=O [Compound 8] | 90 | 80 | 70 | 10 | 0 | 0 | 10 | 0 | 20 | 0 | 20 | 0 | 80 | 20 | 20 | 10 | 60 | 30 | 0 | 0 | Kochia plant response rating (0 to 100 scale) (kochia (Kochia scoparia) [10]; 125 g ai/ha Preemergence): 10; Kochia plant response rating (0 to 100 scale) (kochia (Kochia scoparia) [10]; 500 g ai/ha Preemergence): 60; Barnyardgrass plant response rating (0 to 100 scale) ([11]; 125 g ai/ha Preemergence): 0; Barnyardgrass plant response rating (0 to 100 scale) ([11]; 500 g ai/ha Preemergence): 20; Pigweed plant response rating (0 to 100 scale) ([12]; 125 g ai/ha Preemergence): 30; Pigweed plant response rating (0 to 100 scale) ([12]; 500 g ai/ha Preemergence): 90; Ragweed plant response rating (0 to 100 scale) ([13]; 125 g ai/ha Preemergence): 0; Ragweed plant response rating (0 to 100 scale) ([13]; 500 g ai/ha Preemergence): 100; Foxtail, Green plant response rating (0 to 100 scale) ([14]; 125 g ai/ha Preemergence): 10; Foxtail, Green plant response rating (0 to 100 scale) ([14]; 500 g ai/ha Preemergence): 30; Ryegrass, Italian plant response rating (0 to 100 scale) ([15]; 125 g ai/ha Preemergence): 50; Ryegrass, Italian plant response rating (0 to 100 scale) ([15]; 500 g ai/ha Preemergence): 50; Plant response rating, Ducksalad (0 to 100 scale, 0 is no effect, 100 is complete control) [16]: 0; Plant response rating, Barnyardgrass (0 to 100 scale, 0 is no effect, 100 is complete control) [17]: 0; Plant response rating, Sedge, Umbrella (0 to 100 scale, 0 is no effect, 100 is complete control) [18]: 0; Plant response rating, Rice (0 to 100 scale, 0 is no effect, 100 is complete control) (rice (Oryza sativa)): 0
2 | CO/N=C(\c1c(O)c(C)nn(C)c1=O)c1cccc2ccccc12 [Compound 26] | 100 | 90 | 90 | 80 | 10 | 0 | 60 | 50 | 90 | 60 | 90 | 80 | 100 | 90 | 80 | 60 | 70 | 70 | 30 | 0 | Kochia plant response rating (0 to 100 scale) (kochia (Kochia scoparia) [10]; 125 g ai/ha Preemergence): 50; Kochia plant response rating (0 to 100 scale) (kochia (Kochia scoparia) [10]; 500 g ai/ha Preemergence): 80; Barnyardgrass plant response rating (0 to 100 scale) ([11]; 125 g ai/ha Preemergence): 40; Barnyardgrass plant response rating (0 to 100 scale) ([11]; 500 g ai/ha Preemergence): 80; Pigweed plant response rating (0 to 100 scale) ([12]; 125 g ai/ha Preemergence): 100; Pigweed plant response rating (0 to 100 scale) ([12]; 500 g ai/ha Preemergence): 100; Ragweed plant response rating (0 to 100 scale) ([13]; 125 g ai/ha Preemergence): 90; Ragweed plant response rating (0 to 100 scale) ([13]; 500 g ai/ha Preemergence): 100; Foxtail, Green plant response rating (0 to 100 scale) ([14]; 125 g ai/ha Preemergence): 70; Foxtail, Green plant response rating (0 to 100 scale) ([14]; 500 g ai/ha Preemergence): 100; Ryegrass, Italian plant response rating (0 to 100 scale) ([15]; 125 g ai/ha Preemergence): 70; Ryegrass, Italian plant response rating (0 to 100 scale) ([15]; 500 g ai/ha Preemergence): 100; Plant response rating, Ducksalad (0 to 100 scale, 0 is no effect, 100 is complete control) [16]: 0; Plant response rating, Barnyardgrass (0 to 100 scale, 0 is no effect, 100 is complete control) [17]: 0; Plant response rating, Sedge, Umbrella (0 to 100 scale, 0 is no effect, 100 is complete control) [18]: 0; Plant response rating, Rice (0 to 100 scale, 0 is no effect, 100 is complete control) (rice (Oryza sativa)): 0
3 | CO/N=C(/c1cccc(C)c1C)c1c(O)c(C)nn(C)c1=O [Compound 23] | 60 | 50 | 30 | 10 | 0 | 0 | 0 | 0 | 80 | 20 | 50 | 20 | 50 | 40 | 0 | 0 | 50 | 30 | 0 | 0 | Kochia plant response rating (0 to 100 scale) (kochia (Kochia scoparia) [10]; 125 g ai/ha Preemergence): 0; Kochia plant response rating (0 to 100 scale) (kochia (Kochia scoparia) [10]; 500 g ai/ha Preemergence): 20; Barnyardgrass plant response rating (0 to 100 scale) ([11]; 125 g ai/ha Preemergence): 0; Barnyardgrass plant response rating (0 to 100 scale) ([11]; 500 g ai/ha Preemergence): 20; Pigweed plant response rating (0 to 100 scale) ([12]; 125 g ai/ha Preemergence): 30; Pigweed plant response rating (0 to 100 scale) ([12]; 500 g ai/ha Preemergence): 80; Ragweed plant response rating (0 to 100 scale) ([13]; 125 g ai/ha Preemergence): 60; Ragweed plant response rating (0 to 100 scale) ([13]; 500 g ai/ha Preemergence): 90; Foxtail, Green plant response rating (0 to 100 scale) ([14]; 125 g ai/ha Preemergence): 0; Foxtail, Green plant response rating (0 to 100 scale) ([14]; 500 g ai/ha Preemergence): 50; Ryegrass, Italian plant response rating (0 to 100 scale) ([15]; 125 g ai/ha Preemergence): 40; Ryegrass, Italian plant response rating (0 to 100 scale) ([15]; 500 g ai/ha Preemergence): 90; Plant response rating, Ducksalad (0 to 100 scale, 0 is no effect, 100 is complete control) [16]: 0; Plant response rating, Barnyardgrass (0 to 100 scale, 0 is no effect, 100 is complete control) [17]: 0; Plant response rating, Sedge, Umbrella (0 to 100 scale, 0 is no effect, 100 is complete control) [18]: 0; Plant response rating, Rice (0 to 100 scale, 0 is no effect, 100 is complete control) (rice (Oryza sativa)): 0
